From paper PMC12643509, “High-throughput screens identify genotype-specific therapeutics for channelopathies” (JCI Insight, 2025) come the findings set out here.

One data set concerns the target wild-type KV11.1 (Homo sapiens, UniProt Q12809).
Data set [1] deals with Kv11.1 missense variants, residues 536–628 (Homo sapiens, UniProt Q12809, Y475D). Nature of the data set: Multiplexed assay of variant effect (saturation mutagenesis, FACS surface trafficking). The following applies: missense variant Y475D.
Kv11.1 missense variants, residues 536–628, sequence (Q12809 whole entry Y475D, the tested form may be a part): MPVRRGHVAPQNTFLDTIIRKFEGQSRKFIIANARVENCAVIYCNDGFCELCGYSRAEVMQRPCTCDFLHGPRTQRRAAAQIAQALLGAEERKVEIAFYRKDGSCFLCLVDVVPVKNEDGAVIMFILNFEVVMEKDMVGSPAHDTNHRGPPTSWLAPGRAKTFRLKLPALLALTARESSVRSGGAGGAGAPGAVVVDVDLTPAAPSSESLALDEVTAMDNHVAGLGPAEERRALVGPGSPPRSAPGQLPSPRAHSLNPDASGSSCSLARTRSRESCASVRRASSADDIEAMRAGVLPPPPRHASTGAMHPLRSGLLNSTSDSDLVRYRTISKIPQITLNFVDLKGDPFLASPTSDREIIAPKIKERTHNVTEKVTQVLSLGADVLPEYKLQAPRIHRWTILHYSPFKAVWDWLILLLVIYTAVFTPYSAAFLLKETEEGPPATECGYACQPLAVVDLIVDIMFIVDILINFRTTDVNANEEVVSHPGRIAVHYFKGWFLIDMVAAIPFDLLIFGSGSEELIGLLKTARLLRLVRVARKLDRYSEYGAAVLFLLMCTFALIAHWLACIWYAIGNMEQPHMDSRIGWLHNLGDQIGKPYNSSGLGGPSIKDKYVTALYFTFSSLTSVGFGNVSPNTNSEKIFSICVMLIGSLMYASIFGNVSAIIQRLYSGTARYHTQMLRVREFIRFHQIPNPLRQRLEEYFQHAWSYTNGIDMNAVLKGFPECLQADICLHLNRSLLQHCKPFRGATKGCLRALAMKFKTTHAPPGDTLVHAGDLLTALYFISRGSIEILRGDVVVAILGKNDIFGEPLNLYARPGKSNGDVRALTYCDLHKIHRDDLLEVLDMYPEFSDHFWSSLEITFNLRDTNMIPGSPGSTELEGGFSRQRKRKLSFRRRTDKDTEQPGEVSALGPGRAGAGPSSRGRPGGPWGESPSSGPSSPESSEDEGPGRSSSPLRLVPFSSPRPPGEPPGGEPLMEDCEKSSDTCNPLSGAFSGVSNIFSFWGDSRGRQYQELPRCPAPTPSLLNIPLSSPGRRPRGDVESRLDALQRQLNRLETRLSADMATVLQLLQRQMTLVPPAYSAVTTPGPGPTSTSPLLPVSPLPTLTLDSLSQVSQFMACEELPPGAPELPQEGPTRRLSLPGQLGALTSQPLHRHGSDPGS
Method: Cells were grown to 40%–60% confluence and transiently transfected first with Bxb1 integrase (pCAG–NLS–HA–Bxb1) using FuGENE 6 (Promega), followed by KCNH2 variant libraries 24 hours later. On day 6, cells were induced with 1 μg/mL doxycycline. Integrated cell lines expressed a single variant alongside mCherry, while nonintegrated cells were tagBFP-positive and mCherry-negative.
Saturation mutagenesis of Kv11.1 was performed using a modified promoterless dsRed-Express derivative plasmid. WT KCNH2 was inserted adjacent to an AttB site, and NdeI/BglII sites were created via synonymous mutations. […] These were purified, ligated, and electroporated into MegaX DH10B Electrocomp Cells.
The mutant pool was subcloned into the AttB-KCNH2-HA:IRES:mCherry plasmid, with an 18-mer poly-N barcode inserted adjacent to the AttB site. Each cloning step was validated via Sanger sequencing. To link barcodes with mutants, the library was digested, ligated, and PCR amplified. Final products were purified and sequenced on an Illumina NovaSeq. Reads were analyzed with a custom Python script to identify barcodes linked to single mutations.
HEK293T cells were cultured in αMEM (Corning) with 10% FBS and 1% GlutaMax at 37°C with 5% CO2. The KCNH2 variant library was integrated into a HEK293T “landing pad” cell line containing an AttP site between a tetracycline-inducible promoter and a blue fluorescent protein gene.
Cells were transfected using FuGENE 6, first with a plasmid expressing Bxb1 integrase (pCAG–NLS–HA–Bxb1) and then, the following day, with the KCNH2 variant library. On day 6, cells were incubated with 1 μg/mL doxycycline to induce expression from the landing pad’s promoter. Resulting stable cell lines expressed one variant and mCherry, while nonintegrated cells expressed tagBFP and were mCherry-negative.
Stable HEK293T cell lines were cultured in T75 flasks until 80%–90% confluent. […] After treatments, high-throughput quantitation was performed at the Vanderbilt University Medical Center Flow Cytometry Shared Resource Core (FCSR).
The treated HEK293T library was sorted via FACS to isolate cells with high mCherry expression and successful AttB plasmid integration. […] Sorted cells were repopulated and prepared for freezing, pelleted at 1 million cells per tube.
DNA was isolated from cell pools (100 μL QuickExtract per 1 million cells) and the barcode was PCR amplified for Illumina sequencing using Q5 polymerase (25–35 cycles). Sequencing reads were demultiplexed and analyzed using custom Python scripts (https://github.com/kroncke-lab/KCNH2_DMS) to identify barcodes.
The scores were then averaged across the 4 replicate experiments (separate transfections of the mutant library pool).

wild-type KV11.1, sequence (Q12809 whole entry, the tested form may be a part): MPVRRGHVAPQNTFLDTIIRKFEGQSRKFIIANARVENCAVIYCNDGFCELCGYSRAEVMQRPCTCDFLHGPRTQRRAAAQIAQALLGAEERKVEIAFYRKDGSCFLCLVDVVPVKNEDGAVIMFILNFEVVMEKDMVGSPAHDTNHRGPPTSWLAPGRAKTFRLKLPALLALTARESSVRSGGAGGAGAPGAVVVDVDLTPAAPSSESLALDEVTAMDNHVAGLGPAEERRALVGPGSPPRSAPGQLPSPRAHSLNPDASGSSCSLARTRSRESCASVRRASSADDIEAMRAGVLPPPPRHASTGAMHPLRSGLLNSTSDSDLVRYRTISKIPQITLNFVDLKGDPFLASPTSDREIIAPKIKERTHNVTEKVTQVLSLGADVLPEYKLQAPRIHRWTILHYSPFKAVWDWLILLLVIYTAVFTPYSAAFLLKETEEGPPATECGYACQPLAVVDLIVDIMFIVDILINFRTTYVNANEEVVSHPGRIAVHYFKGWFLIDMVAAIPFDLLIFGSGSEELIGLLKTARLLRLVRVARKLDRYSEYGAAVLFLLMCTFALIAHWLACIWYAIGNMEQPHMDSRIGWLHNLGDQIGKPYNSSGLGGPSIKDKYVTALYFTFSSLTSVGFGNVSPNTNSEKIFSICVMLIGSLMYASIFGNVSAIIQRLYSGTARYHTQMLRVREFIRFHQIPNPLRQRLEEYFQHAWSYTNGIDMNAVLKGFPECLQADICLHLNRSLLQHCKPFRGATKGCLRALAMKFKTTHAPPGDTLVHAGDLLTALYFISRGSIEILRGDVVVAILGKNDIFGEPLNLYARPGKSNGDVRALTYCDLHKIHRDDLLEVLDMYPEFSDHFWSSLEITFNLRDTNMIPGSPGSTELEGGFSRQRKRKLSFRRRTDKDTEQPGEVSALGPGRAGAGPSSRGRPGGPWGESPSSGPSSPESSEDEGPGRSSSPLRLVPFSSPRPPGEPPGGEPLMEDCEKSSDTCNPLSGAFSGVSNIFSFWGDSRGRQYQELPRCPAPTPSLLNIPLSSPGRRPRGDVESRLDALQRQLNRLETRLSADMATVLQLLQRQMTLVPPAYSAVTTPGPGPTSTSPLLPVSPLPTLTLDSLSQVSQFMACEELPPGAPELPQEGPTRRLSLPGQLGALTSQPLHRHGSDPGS

`Cc1cc(C)c2c(c1)[C@@H](N(Cc1cc(C(F)(F)F)cc(C(F)(F)F)c1)c1nnn(C)n1)CCCN2C[C@H]1CC[C@H](C(=O)O)CC1` [Evacetrapib, evacetrapib]: the “inhibition of WT channels” value at wild-type KV11.1 is “did not inhibit WT channels”. Further, the “score (Figure 6B)” value in data set [1] was 152.736.
